# Measured values as given in patent publication US10640495B2, “Heterocycle derivatives having TrkA inhibitory activity” (Shionogi & Co., Ltd., priority 2015, dated 2020).
# Biological target: human TrkA (Homo sapiens (Human), UniProt P04629)
# Test: Human TrkA inhibition assay (Test Example 2)
# Format: biochemical
# Settings: Table 152, human TrkA inhibition; read-out: IC50_nM
# Summary of the method: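 Mobility-shift readout of phosphorylated versus unphosphorylated fluorescent peptide gave conversion ratio, normalized to DMSO and no-enzyme wells; IC50 by logistic fit of 10- or 15-point 3-fold dilutions. Conditions: 1 nmol/L enzyme, 15 min compound preincubation, then 500 μmol/L ATP plus 1.5 μmol/L peptide, 120 min, 37 °C.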
# Chain of human TrkA (P04629 440-796): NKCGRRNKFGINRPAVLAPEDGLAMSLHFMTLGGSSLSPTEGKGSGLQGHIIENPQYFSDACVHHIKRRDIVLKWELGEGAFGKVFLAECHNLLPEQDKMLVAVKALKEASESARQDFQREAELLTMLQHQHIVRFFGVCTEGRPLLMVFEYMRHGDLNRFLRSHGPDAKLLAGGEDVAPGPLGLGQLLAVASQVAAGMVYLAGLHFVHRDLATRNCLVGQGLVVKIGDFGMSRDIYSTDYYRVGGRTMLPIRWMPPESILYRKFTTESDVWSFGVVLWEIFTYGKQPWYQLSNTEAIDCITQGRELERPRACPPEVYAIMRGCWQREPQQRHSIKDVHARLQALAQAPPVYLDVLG
row,SMILES,IC50 [nM]
1,COCCC1C[C@@H](NC(=O)Nc2c(C)c(-c3ccc(C(=O)O)cc3)nn2-c2ccccc2)[C@H](c2ccccc2)O1 (stereo partly shown) [Compound I-15],< 100
2,COCCN1C[C@@H](NC(=O)Nc2c(C)c(-c3ccc(=O)[nH]c3)nn2-c2ccccc2)[C@H](c2ccc(F)c(F)c2)O1 (racemic) [Compound I-32],< 100

# Same assay, conditions: Table 153, human TrkA inhibition; read-out: IC50
row,SMILES,IC50 [nM]
1,CNC(=O)c1cc(-c2nn(-c3ccccc3)c(NC(=O)N[C@@H]3CN(Cc4ccco4)O[C@H]3c3ccc(F)c(F)c3)c2C)cn(C)c1=O (racemic) [Compound I-149],< 100
2,COCCN1C[C@@H](NC(=O)Nc2c(C)c(-c3cnc(C4CC4)nc3)nn2-c2ccccc2)[C@H](c2cnc(F)c(F)c2)O1 (racemic) [Compound I-70],< 100
3,COCCN1C[C@@H](NC(=O)Nc2c(C)c(-c3cnc(C(=O)NCC(F)(F)F)c(C)c3)nn2-c2ccccc2)[C@H](c2ccnc(F)c2)O1 (racemic) [Compound I-168],< 100
4,COCCN1C[C@@H](NC(=O)Nc2c(C)c(-c3cnc(NC4CC4)nc3)nn2-c2ccccc2)[C@H](c2ccnc(F)c2)O1 (racemic) [Compound I-131],< 100
5,COCCN1C[C@@H](NC(=O)Nc2c(C)c(-c3cnn(C)c3)nn2-c2ccc(F)c(F)c2)[C@H](c2ccc(F)c(F)c2)O1 (racemic) [Compound I-86],< 100
6,CCNC(=O)c1cc(-c2nn(-c3ccccc3)c(NC(=O)N[C@@H]3CN(CCOC)O[C@H]3c3ccnc(F)c3)c2C)cnc1OC (racemic) [Compound I-110],< 100
7,COCCN1C[C@@H](NC(=O)Nc2c(C)c(-c3cnn(C)c3)nn2-c2ccccc2)[C@H](c2ccnc(F)c2)O1 (racemic) [Compound I-91],< 100
8,COCCN1C[C@@H](NC(=O)Nc2c(C)c(-c3cnc4c(c3)nnn4C)nn2-c2ccccc2)[C@H](c2cnc(F)c(F)c2)O1 (racemic) [Compound I-127],< 100
9,COCCN1C[C@@H](NC(=O)Nc2c(C)c(-c3cnc(N(C)C)nc3)nn2-c2ccccc2)[C@H](c2cnc(F)c(F)c2)O1 [Compound I-133],< 100
10,COCCN1C[C@@H](NC(=O)Nc2c(C)c(-c3cccc(N=S(C)(C)=O)c3)nn2-c2ccccc2)[C@H](c2ccc(F)c(F)c2)O1 (racemic) [Compound I-89],< 100

# Same assay, conditions: Table 154, human TrkA inhibition; read-out: IC50
row,SMILES,IC50 [nM]
1,COCCN1C[C@@H](NC(=O)Nc2c(C)c(-c3cnc(OC)c(C(=O)NC4CCOCC4)c3)nn2-c2ccc(F)c(F)c2)[C@H](c2ccc(F)c(F)c2)O1 (racemic) [Compound I-182],< 100
2,COCCN1C[C@@H](NC(=O)Nc2c(C)c(-c3cnc(SC)nc3)nn2-c2ccccc2)[C@H](c2ccnc(F)c2)O1 (racemic) [Compound I-250],< 100
3,CCOc1ncc(-c2nn(-c3ccccc3)c(NC(=O)N[C@@H]3CN(CCOC)O[C@H]3c3ccnc(F)c3)c2C)cn1 (racemic) [Compound I-196],< 100
4,COCCN1C[C@@H](NC(=O)Nc2c(C)c(-c3cnc(OC)nc3)nn2-c2ccccc2)[C@H](c2ccc(F)cc2)O1 (racemic) [Compound I-247],< 100
5,COCCN1C[C@@H](NC(=O)Nc2c(C)c(-c3cnc4nn(CC(F)(F)F)cc4c3)nn2-c2ccccc2)[C@H](c2ccnc(F)c2)O1 (racemic) [Compound I-243],< 100
6,Cc1c(-c2cnc3c(cnn3C)c2)nn(-c2ccccc2)c1NC(=O)N[C@@H]1CN(CC(F)(F)F)O[C@H]1c1ccc(F)c(F)c1 (racemic) [Compound I-305],< 100
7,COCCN1C[C@@H](NC(=O)Nc2c(C)c(-c3ccc4c(c3)CS(=O)(=O)N4C)nn2-c2ccccc2)[C@H](c2ccnc(F)c2)O1 (racemic) [Compound I-262],< 100

# Same assay, conditions: Table 155, human TrkA inhibition; read-out: IC50
row,SMILES,IC50 [nM]
1,COCCN1C[C@@H](NC(=O)Nc2c(C)c(-c3cnc(N4CCCC4)nc3)nn2-c2ccccc2)[C@H](c2ccnc(F)c2)O1 (racemic) [Compound I-378],< 100
2,COCCN1C[C@@H](NC(=O)Nc2c(C)c(-c3cnc(N4CCN(C)CC4)nc3)nn2-c2ccccc2)[C@H](c2cc(F)nc(F)c2)O1 (racemic) [Compound I-380],< 100
3,COCCN1C[C@@H](NC(=O)Nc2c(C)c(OCC3CN(C)CCO3)nn2-c2ccccc2)[C@H](c2ccnc(F)c2)O1 (stereo partly shown) [Compound I-505],< 100
4,COCCN1C[C@@H](NC(=O)Nc2c(C)c(-c3cnc4c(c3)nc(N3CCN(C)CC3)n4C)nn2-c2ccccc2)[C@H](c2ccnc(F)c2)O1 (racemic) [Compound I-399],< 100
5,COCCN1C[C@@H](NC(=O)Nc2c(C)c(-c3cnc(OC4CCN(C)CC4)nc3)nn2-c2ccccc2)[C@H](c2cc(F)nc(F)c2)O1 (racemic) [Compound I-418],< 100
6,COCCN1C[C@@H](NC(=O)Nc2c(C)c(OCc3ccon3)nn2-c2ccccc2)[C@H](c2ccnc(F)c2)O1 (racemic) [Compound I-457],< 100
7,COCCN1C[C@@H](NC(=O)Nc2c(C)c(-c3cnc4c(c3)ncn4CC(=O)N(C)C)nn2-c2ccccc2)[C@H](c2ccnc(F)c2)O1 (racemic) [Compound I-402],< 100
8,COCCN1C[C@@H](NC(=O)Nc2c(C)c(-c3ccc(N=S(C)(C)=O)nc3)nn2-c2ccccc2)[C@H](c2ccc(F)cc2)O1 [Compound I-334],< 100
9,COCCN1C[C@@H](NC(=O)Nc2c(C)c(-c3cnc(OC(CF)CF)nc3)nn2-c2ccccc2)[C@H](c2ccnc(F)c2)O1 (racemic) [Compound I-478],< 100
10,COCCN1C[C@@H](NC(=O)Nc2c(C)c(C(=O)NCC(C)(C)O)nn2-c2ccccc2)[C@H](c2ccnc(F)c2)O1 (racemic) [Compound I-385],< 100
11,CNC(=O)c1nn(-c2ccccc2)c(NC(=O)N[C@@H]2CN(CCOC)O[C@H]2c2ccnc(F)c2)c1C (racemic) [Compound I-384],< 100
12,COCCN1C[C@@H](NC(=O)Nc2c(C)c(-c3cnc4c(c3)CCN4)nn2-c2ccccc2)[C@H](c2ccnc(F)c2)O1 (racemic) [Compound I-351],< 100

# Same assay, conditions: Table 156, human TrkA inhibition; read-out: IC50
row,SMILES,IC50 [nM]
1,CCN1C[C@@H](NC(=O)Nc2c(C)c(-c3cnc(N4CCN(C)CC4)nc3)nn2-c2ccccc2)[C@H](c2ccc(F)c(F)c2)O1 (racemic) [Compound I-540],< 100
2,COCCN1C[C@@H](NC(=O)Nc2c(C)c(C)nn2-c2ccccc2)[C@H](c2cnc(F)c(F)c2)O1 [Compound I-520],< 100
3,Cc1c(OCC2CCNCC2)nn(-c2ccccc2)c1NC(=O)N[C@@H]1CN(CCF)O[C@H]1c1ccc(F)c(F)c1 (racemic) [Compound I-560],< 100
4,CCN1C[C@@H](NC(=O)Nc2c(C)c(OCC3CCN(C)CC3)nn2-c2ccccc2)[C@H](c2ccc(F)cc2)O1 (racemic) [Compound I-569],< 100

# Same assay, conditions: Table 157, human TrkA inhibition; read-out: IC50
row,SMILES,IC50 [nM]
1,CCN1C[C@@H](NC(=O)Nc2c(C)c(OCCCN3CCCC3)nn2-c2ccccc2)[C@H](c2ccc(F)c(F)c2)O1 (racemic) [Compound I-661],< 100
2,CCN1C[C@@H](NC(=O)Nc2c(C)c(OCCCC(=O)NC)nn2-c2ccccc2)[C@H](c2ccc(F)c(F)c2)O1 (racemic) [Compound I-659],< 100
3,CCN1C[C@@H](NC(=O)Nc2c(C)c(OCCCN(C)C)nn2-c2ccccc2)[C@H](c2ccc(F)c(F)c2)O1 (racemic) [Compound I-610],< 100
4,COCCN1C[C@@H](NC(=O)Nc2c(C)c(OCC(=O)NC3CC3)nn2-c2ccccc2)[C@H](c2ccnc(F)c2)O1 (racemic) [Compound I-635],< 100
5,COCCN1C[C@@H](NC(=O)Nc2c(C)c(-c3cnc(N4CCN(C)CC4)nc3)nn2-c2ccccc2)[C@H](c2ccc(F)c(F)c2)O1 [Compound I-598],< 100
6,CCN1C[C@@H](NC(=O)Nc2c(C)c(-c3cnc(N4CC(OC)C4)nc3)nn2-c2ccccc2)[C@H](c2ccc(F)c(F)c2)O1 (racemic) [Compound I-628],< 100
7,CCN1C[C@@H](NC(=O)Nc2c(C)c(-c3cnc(C(=O)NC)c(F)c3)nn2-c2ccccc2)[C@H](c2ccc(F)c(F)c2)O1 (racemic) [Compound I-613],< 100
8,CCN1C[C@@H](NC(=O)Nc2c(C)c(OCCC3CCNCC3)nn2-c2ccccc2)[C@H](c2ccc(F)c(F)c2)O1 (racemic) [Compound I-671],< 100
9,CCN1C[C@@H](NC(=O)Nc2c(C)c(OCC(=O)N3CCN(C)CC3)nn2-c2ccccc2)[C@H](c2ccc(F)c(F)c2)O1 (racemic) [Compound I-649],< 100
10,CCN1C[C@@H](NC(=O)Nc2c(C)c(OCC3CNC3)nn2-c2ccccc2)[C@H](c2ccc(F)c(F)c2)O1 (racemic) [Compound I-657],< 100

# Same assay, conditions: human TrkA 1 nmol/L, ATP 500 μmol/L, 120 min at 37° C.; read-out: IC50 values (TrkA phosphorylation inhibition)
row,SMILES,IC50 [nM]
1,COCCN1C[C@@H](c2ccnc(F)c2)[C@H](NC(=O)Nc2c(C)c(-c3cnn(C)c3)nn2-c2ccccc2)O1 (racemic) [Compound I-136],30
2,COCCN1C[C@@H](NC(=O)Nc2c(C)c(N3Cc4cnn(C)c4C3)nn2-c2ccccc2)[C@H](c2ccnc(F)c2)O1 (racemic) [Compound I-244],17
3,COCCN1C[C@@H](NC(=O)Nc2c(C)c(-c3ccc(CN(C)C)nc3)nn2-c2ccccc2)[C@H](c2ccc(F)c(F)c2)O1 [Compound I-638],1.4
4,COCCN1C[C@@H](NC(=O)Nc2c(C)c(-c3ccc(N4CCN(C)CC4)nc3)nn2-c2ccccc2)[C@H](c2ccnc(F)c2)O1 (racemic) [Compound I-392],6.8
5,COCCN1C[C@@H](NC(=O)Nc2c(C)c(-c3cnc(OCC4CC4)nc3)nn2-c2ccccc2)[C@H](c2ccnc(F)c2)O1 (racemic) [Compound I-431],3.1
6,COCC[C@@H]1C[C@@H](NC(=O)Nc2c(C)c(-c3cnc4c(c3)CC(=O)N4C)nn2-c2ccccc2)[C@H](c2ccnc(F)c2)O1 [Compound I-329],1.7
7,COCCN1C[C@@H](NC(=O)Nc2c(C(F)(F)F)c(C)nn2-c2ccccc2)[C@H](c2ccnc(F)c2)O1 (racemic) [Compound I-660],70
